The values below come from ChEMBL document CHEMBL3639296, “Pyrazolopyrimidine compounds as kinase inhibitors” (2015).

As usually defined, the IC50 is the midpoint of a concentration-inhibition curve. Lower therefore signals higher potency.

This assay deals with Tyrosine-protein kinase BTK (Homo sapiens, UniProt Q06187). The assay can be described thus: Caliper-Based Kinase Assay: A Caliper-based kinase assay (Caliper Life Sciences, Hopkinton, Mass.) was used to measure inhibition of Btk kinase activity of a compound of the present disclosure. […] The reaction was then terminated with EDTA, final concentration 20 mM and the phosphorylated reaction product was quantified on a Caliper Desktop Profiler (Caliper LabChip 3000).
Tyrosine-protein kinase BTK, sequence (Q06187 whole entry): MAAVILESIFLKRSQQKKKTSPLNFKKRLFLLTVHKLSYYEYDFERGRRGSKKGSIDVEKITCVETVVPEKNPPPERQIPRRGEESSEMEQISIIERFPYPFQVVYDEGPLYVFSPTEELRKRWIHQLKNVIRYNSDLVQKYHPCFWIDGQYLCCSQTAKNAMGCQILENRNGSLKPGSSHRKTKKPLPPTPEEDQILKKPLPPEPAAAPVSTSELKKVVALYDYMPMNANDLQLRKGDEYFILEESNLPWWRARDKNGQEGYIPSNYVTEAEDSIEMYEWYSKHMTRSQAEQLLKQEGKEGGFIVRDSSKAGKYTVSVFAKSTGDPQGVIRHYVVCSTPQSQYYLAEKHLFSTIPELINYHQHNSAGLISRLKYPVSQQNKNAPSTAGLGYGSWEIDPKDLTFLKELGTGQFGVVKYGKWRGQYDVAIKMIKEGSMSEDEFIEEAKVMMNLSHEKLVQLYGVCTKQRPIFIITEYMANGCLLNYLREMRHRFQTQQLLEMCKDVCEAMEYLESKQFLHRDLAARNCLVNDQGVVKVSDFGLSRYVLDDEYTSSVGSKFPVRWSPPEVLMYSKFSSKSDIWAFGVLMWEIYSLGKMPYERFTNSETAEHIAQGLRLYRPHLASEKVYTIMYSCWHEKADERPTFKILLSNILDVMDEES
Consider `CC(C)(C)N1CCN(C(C)(C)C=C(C#N)C(=O)N2CCC[C@@H](n3nc(-c4ccc(Oc5ccccc5)cc4F)c4c(N)ncnc43)C2)CC1`, for which the half-inhibitory concentration (IC50) was determined as 0.6 nM.

Consider `CC(C)(C=C(C#N)C(=O)N1CCC[C@H]1Cn1nc(-c2ccc(Oc3ccccc3)cc2F)c2c(N)ncnc21)NC1COC1`, for which the concentration for half-maximal inhibition (IC50) is 16.1 nM.

In the case of `CC(C)(C=C(C#N)C(=O)N1CCC[C@H]1Cn1nc(-c2ccc(Oc3ccccc3)cc2F)c2c(N)ncnc21)N(C1CC1)C1COC1`, the IC50 worked out at 26 nM.
